Data published in patent US8425447B2, “Selective cytopheresis devices and related methods thereof” (The Regents of the University of Michigan, priority 2007, dated 2013).

Test system: Leukocytes isolated from normal healthy individuals
Test: In vitro release from leukocytes adhered to polysulfone membranes, with or without LPS
Assay type: cell-based, human
Method: Leukocytes were isolated from normal healthy individuals using established methods. The leukocytes (10^6 cells per well) were placed into 12-well tissue culture plates containing 14×14 mm squares of polysulfone membranes (Fresenius, Walnut Creek, Calif.) and allowed to adhere for 60 minutes at 37° C. in RPMI media. The media was removed, cells washed with PBS, and the removed supernatants were analyzed for cell release. RPMI media with citrate (Cai=0.25 mmol/L) or without citrate (Cai=0.89 mmol/L) was used to achieve the Cai levels described in Table 5 below. Each calcium condition also had media with or without lipopolysaccharide (LPS, 1 μg/mL) to activate the leukocytes.
The cells were exposed to these conditions for […] and removed from the media to assess release of lactoferrin (LF) and myeloperoxidase (MPO), proteins in exocytotic vesicles from neutrophils, and cytokines, IL-6 and IL-8, released from leukocytes. These compounds were assayed with commercially available Elisa kits (R & D Systems, Cell Sciences, and EMD BioSciences).

[1] = with LPS (1 μg/mL), citrate media Cai 0.25 mmol/L, 60 seconds
[2] = without LPS, citrate media Cai 0.25 mmol/L, 60 seconds

## O=C(O)CC(O)(CC(=O)O)C(=O)O [Citrate]
citrate-containing media with low Cai, in contrast to normal Cai media
  increases in LF, MPO, IL-6, or IL-8 on LPS stimulation: no increases
[1]
  IL-6 release, Stimulated: 2.9 pg/mL/10^6 cells
  IL-8 release, Stimulated: 19.4 ng/mL/10^6 cells
  Lactoferrin release, Stimulated: 187 ng/mL/10^6 cells
  Myeloperoxidase release, Stimulated: 270 ng/mL/10^6 cells
[2]
  IL-6 release, Baseline: 3.3 pg/mL/10^6 cells
  IL-8 release, Baseline: 25.8 ng/mL/10^6 cells
  Lactoferrin release, Baseline: 221 ng/mL/10^6 cells
  Myeloperoxidase release, Baseline: 268 ng/mL/10^6 cells
